Experimental data: patent publication US20060069132A1, “Azolecarboxamide herbicides” (priority 2004, published 2006)
Like-named read-outs stand apart in the source and are kept apart here.

How the values were obtained:
Surinam grass = assay: Test B pre-/postemergence herbicide test; format: in vivo, Urochloa decumbens; conditions: for pest or weed control at 125 g/ha / pest or weed control at 500 g/ha: Urochloa decumbens
Procedure, shortened: (§1)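 Seeds were planted and treated preemergence with compounds formulated in a non-phytotoxic solvent mixture containing surfactant, while plants at the 1- to 4-leaf stage (2 to 18 cm) received postemergence sprays. Flooded paddy plants were grown to the 2-leaf stage. After 13 to 15 days in a greenhouse, injury was visually rated 0–100 against untreated controls.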

corn = assay: Test B pre-/postemergence herbicide test; format: in vivo, Zea mays
Procedure, shortened: as §1

large crabgrass = assay: Test B pre-/postemergence herbicide test; format: in vivo, Digitaria sanguinalis; conditions: for pest or weed control at 125 g/ha / pest or weed control at 500 g/ha: Digitaria sanguinalis
Procedure, shortened: as §1

giant foxtail = assay: Test B pre-/postemergence herbicide test; format: in vivo, Setaria faberi; conditions: for pest or weed control at 125 g/ha / pest or weed control at 500 g/ha: Setaria faberi, 336 h
Procedure, shortened: as §1

lambsquarters = assay: Test B pre-/postemergence herbicide test; format: in vivo, Chenopodium album
Procedure, shortened: as §1

morningglory = assay: Test B pre-/postemergence herbicide test; format: in vivo, Ipomoea coccinea; conditions: for pest or weed control at 125 g/ha / pest or weed control at 500 g/ha: Ipomoea, 336 h
Procedure, shortened: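 Evaluation is visual, comparing treated with control plants on a scale where 0 means no effect and 100 means full control. Treatments were preemergence, or postemergence on seedlings 2–18 cm tall, and held 13–15 days in the greenhouse.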

pigweed = assay: Test B pre-/postemergence herbicide test; format: in vivo, Amaranthus retroflexus
Procedure, shortened: as §1

velvetleaf = assay: Test B pre-/postemergence herbicide test; format: in vivo, Abutilon theophrasti; conditions: for pest or weed control at 125 g/ha / pest or weed control at 500 g/ha: Abutilon theophrasti, 336 h
Procedure, shortened: as §1

blackgrass = assay: Test B postemergence herbicide test; format: in vivo, Alopecurus myosuroides; conditions: postemergence, visual rating, scale 0 (no effect) to 100 (complete control)
Procedure, shortened: (§2)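 Each value is a visual 0–100 response rating taken against controls 13 to 15 days after treatment in the greenhouse. Plants received formulated chemical postemergence at the 1- to 4-leaf stage or, in flooded paddy, at the 2-leaf stage.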

wheat = assay: Test B postemergence herbicide test; format: in vivo, Triticum aestivum; set-up: key to Wheat plant response rating: 0 = no effect, 100 = complete control; conditions: postemergence
Procedure, shortened: as §2

wild oat = assay: Test B postemergence herbicide test; format: in vivo, Avena fatua; conditions: postemergence
Procedure, shortened: as §2

rice = assay: Test B flooded paddy test; format: in vivo, Oryza sativa; conditions: 1000 g ai/ha, scale 0 to 100 (0 no effect, 100 complete control)
Procedure, shortened: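 Visual ratings, 0 (no effect) to 100 (complete control), made versus controls after 13–15 d greenhouse. Paddy plants treated at 2-leaf stage; postemergence plants at 1- to 4-leaf stage, 2–18 cm tall.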

[1] = tested on: small flower umbrella sedge; assay: Test B flooded paddy test; format: in vivo, Cyperus difformis; conditions: 1000 g ai/ha, scale 0 to 100 (0 no effect, 100 complete control)
Procedure, shortened: as §2

ducksalad = assay: Test B flooded paddy test; format: in vivo, Heteranthera limosa; conditions: 1000 g ai/ha, scale 0 to 100 (0 no effect, 100 complete control)
Procedure, shortened: as §2

barnyardgrass = assay: Test B flooded paddy test; format: in vivo, Echinochloa crus-galli; conditions: 1000 g ai/ha, scale 0 to 100 (0 no effect, 100 complete control)
Procedure, shortened: as §2

[2] = 125 g ai/ha, 0 = no effect, 100 = complete control, preemergence
[3] = 500 g ai/ha, visual rating, 0 = no effect, 100 = complete control, preemergence
[4] = postemergence, 125 g ai/ha, visual rating, scale 0 (no effect) to 100 (complete control)
[5] = postemergence, 500 g ai/ha, scale 0 to 100, 0 is no effect, 100 is complete control
[6] = 125 g ai/ha, visual rating, scale 0 (no effect) to 100 (complete control)
[7] = 500 g ai/ha, scale 0 to 100, 0 is no effect, 100 is complete control

CCn1nc(C(C)(C)C)cc1C(=O)Nc1cc(C(=O)N(C)OC)ccc1F [Compound 244]
10: Corn plant response rating (corn; [4]) | Crabgrass, Large plant response rating (large crabgrass; [4]) | Morningglory plant response rating (morningglory; [4]) | Blackgrass plant response rating (blackgrass; 125 g ai/ha) | Wheat plant response rating (wheat; [6])
40: Lambsquarters plant response rating (lambsquarters; [4]) | Velvetleaf plant response rating (velvetleaf; [4])
70: Surinam Grass plant response rating (0 to 100 scale) (Surinam grass; [2]) | Lambsquarters plant response rating (lambsquarters; [5]) | Pigweed plant response rating (pigweed; [5]) | Velvetleaf plant response rating (0 to 100 scale) (velvetleaf; [2])
0: Morningglory plant response rating (0 to 100 scale) (morningglory; [2])
90: Plant response rating, Surinam Grass (Surinam grass; [3]) | Crabgrass, Large plant response rating (0 to 100 scale) (large crabgrass; [2]) | Plant response rating, Foxtail, Giant (giant foxtail; [3]) | Lambsquarters plant response rating (0 to 100 scale) (lambsquarters; [2]) | Pigweed plant response rating (0 to 100 scale) (pigweed; [2]) | Rice plant response rating (rice) | Ducksalad plant response rating (ducksalad) | Barnyardgrass plant response rating (barnyardgrass)
30: Surinam Grass plant response rating (Surinam grass; [5]) | Corn plant response rating (0 to 100 scale) (corn; [2]) | Corn plant response rating (corn; [5]) | Crabgrass, Large plant response rating (large crabgrass; [5]) | Foxtail, Giant plant response rating (giant foxtail; [5]) | Oat, Wild plant response rating (wild oat; [6])
60: Plant response rating, Corn (corn; [3]) | Velvetleaf plant response rating (velvetleaf; [5])
80: Foxtail, Giant plant response rating (0 to 100 scale) (giant foxtail; [2]) | Sedge, Umbrella plant response rating [1]
20: Surinam Grass plant response rating (Surinam grass; [4]) | Foxtail, Giant plant response rating (giant foxtail; [4]) | Plant response rating, Morningglory (morningglory; [3]) | Morningglory plant response rating (morningglory; [5]) | Blackgrass plant response rating (blackgrass; 500 g ai/ha) | Wheat plant response rating (wheat; [7])
100: Plant response rating, Crabgrass, Large (large crabgrass; [3]) | Plant response rating, Lambsquarters (lambsquarters; [3]) | Plant response rating, Pigweed (pigweed; [3]) | Plant response rating, Velvetleaf (velvetleaf; [3])
50: Pigweed plant response rating (pigweed; [4]) | Oat, Wild plant response rating (wild oat; [7])

CCN(CC)C(=O)c1cncc(NC(=O)c2cc(C(C)(C)C)nn2CC)c1 [Compound 261, 5-[[[3-(1,1-dimethylethyl)-1-ethyl-1H-pyrazol-5-yl]carbonyl]amino]-N,N-diethyl-3-pyridinecarboxamide]
50%: pest or weed control at 125 g/ha (large crabgrass; pre-emergence, 125 g ai/ha, 0 = no effect, 100 = complete control, read-out: Crabgrass, Large plant response rating (0 to 100 scale)) | pest or weed control at 500 g/ha (large crabgrass; pre-emergence, 500 g ai/ha, visual rating, 0 = no effect, 100 = complete control, read-out: Plant response rating, Crabgrass, Large)
60%: pest or weed control at 500 g/ha (lambsquarters; Chenopodium album, post-emergence, 336 h, postemergence, 500 g ai/ha, scale 0 to 100, 0 is no effect, 100 is complete control, read-out: Lambsquarters plant response rating) | plant injury at 1000 g/ha (rice; Oryza sativa, 336 h, read-out: Rice plant response rating)
80%: pest or weed control at 1000 g/ha (ducksalad; Heteranthera limosa, 336 h, read-out: Ducksalad plant response rating)
10%: plant injury at 125 g/ha (corn; Zea mays, post-emergence, postemergence, 125 g ai/ha, visual rating, scale 0 (no effect) to 100 (complete control), read-out: Corn plant response rating) | pest or weed control at 500 g/ha (large crabgrass; post-emergence, postemergence, 500 g ai/ha, scale 0 to 100, 0 is no effect, 100 is complete control, read-out: Crabgrass, Large plant response rating) | pest or weed control at 125 g/ha (lambsquarters; Chenopodium album, post-emergence, 336 h, postemergence, 125 g ai/ha, visual rating, scale 0 (no effect) to 100 (complete control), read-out: Lambsquarters plant response rating)
30%: pest or weed control at 1000 g/ha ([1]; Cyperus difformis, 336 h, read-out: Sedge, Umbrella plant response rating)
70%: pest or weed control at 500 g/ha (pigweed; Amaranthus retroflexus, post-emergence, 336 h, postemergence, 500 g ai/ha, scale 0 to 100, 0 is no effect, 100 is complete control, read-out: Pigweed plant response rating)
20%: pest or weed control at 500 g/ha (Surinam grass; post-emergence, postemergence, 500 g ai/ha, scale 0 to 100, 0 is no effect, 100 is complete control, read-out: Surinam Grass plant response rating) | plant injury at 500 g/ha (corn; Zea mays, post-emergence, postemergence, 500 g ai/ha, scale 0 to 100, 0 is no effect, 100 is complete control, read-out: Corn plant response rating) | pest or weed control at 125 g/ha (pigweed; Amaranthus retroflexus, post-emergence, 336 h, postemergence, 125 g ai/ha, visual rating, scale 0 (no effect) to 100 (complete control), read-out: Pigweed plant response rating) | pest or weed control at 500 g/ha (velvetleaf; pre-emergence, 500 g ai/ha, visual rating, 0 = no effect, 100 = complete control, read-out: Plant response rating, Velvetleaf) | pest or weed control at 500 g/ha (blackgrass; Alopecurus myosuroides, post-emergence, 336 h, 500 g ai/ha, read-out: Blackgrass plant response rating) | plant injury at 500 g/ha (wheat; Triticum aestivum, post-emergence, 336 h, 500 g ai/ha, scale 0 to 100, 0 is no effect, 100 is complete control, read-out: Wheat plant response rating) | pest or weed control at 500 g/ha (wild oat; Avena fatua, post-emergence, 336 h, 500 g ai/ha, scale 0 to 100, 0 is no effect, 100 is complete control, read-out: Oat, Wild plant response rating)
0%: pest or weed control at 125 g/ha (Surinam grass; post-emergence, postemergence, 125 g ai/ha, visual rating, scale 0 (no effect) to 100 (complete control), read-out: Surinam Grass plant response rating) | pest or weed control at 125 g/ha (Surinam grass; pre-emergence, 125 g ai/ha, 0 = no effect, 100 = complete control, read-out: Surinam Grass plant response rating (0 to 100 scale)) | pest or weed control at 500 g/ha (Surinam grass; pre-emergence, 500 g ai/ha, visual rating, 0 = no effect, 100 = complete control, read-out: Plant response rating, Surinam Grass) | Corn plant response rating (crop injury, 0 = no effect, 100 = complete kill) at 500 g/ha (corn; Zea mays, pre-emergence, 500 g ai/ha, visual rating, 0 = no effect, 100 = complete control) | pest or weed control at 125 g/ha (large crabgrass; post-emergence, postemergence, 125 g ai/ha, visual rating, scale 0 (no effect) to 100 (complete control), read-out: Crabgrass, Large plant response rating) | pest or weed control at 125 g/ha (giant foxtail; post-emergence, postemergence, 125 g ai/ha, visual rating, scale 0 (no effect) to 100 (complete control), read-out: Foxtail, Giant plant response rating) | pest or weed control at 500 g/ha (giant foxtail; post-emergence, postemergence, 500 g ai/ha, scale 0 to 100, 0 is no effect, 100 is complete control, read-out: Foxtail, Giant plant response rating) | pest or weed control at 125 g/ha (giant foxtail; pre-emergence, 125 g ai/ha, 0 = no effect, 100 = complete control, read-out: Foxtail, Giant plant response rating (0 to 100 scale)) | pest or weed control at 500 g/ha (giant foxtail; pre-emergence, 500 g ai/ha, visual rating, 0 = no effect, 100 = complete control, read-out: Plant response rating, Foxtail, Giant) | pest or weed control at 125 g/ha (morningglory; post-emergence, postemergence, 125 g ai/ha, visual rating, scale 0 (no effect) to 100 (complete control), read-out: Morningglory plant response rating) | pest or weed control at 500 g/ha (morningglory; post-emergence, postemergence, 500 g ai/ha, scale 0 to 100, 0 is no effect, 100 is complete control, read-out: Morningglory plant response rating) | pest or weed control at 125 g/ha (morningglory; pre-emergence, 125 g ai/ha, 0 = no effect, 100 = complete control, read-out: Morningglory plant response rating (0 to 100 scale)) | pest or weed control at 500 g/ha (morningglory; pre-emergence, 500 g ai/ha, visual rating, 0 = no effect, 100 = complete control, read-out: Plant response rating, Morningglory) | pest or weed control at 125 g/ha (pigweed; Amaranthus retroflexus, pre-emergence, 336 h, 125 g ai/ha, 0 = no effect, 100 = complete control, read-out: Pigweed plant response rating (0 to 100 scale)) | pest or weed control at 125 g/ha (velvetleaf; post-emergence, postemergence, 125 g ai/ha, visual rating, scale 0 (no effect) to 100 (complete control), read-out: Velvetleaf plant response rating) | pest or weed control at 500 g/ha (velvetleaf; post-emergence, postemergence, 500 g ai/ha, scale 0 to 100, 0 is no effect, 100 is complete control, read-out: Velvetleaf plant response rating) | pest or weed control at 125 g/ha (velvetleaf; pre-emergence, 125 g ai/ha, 0 = no effect, 100 = complete control, read-out: Velvetleaf plant response rating (0 to 100 scale)) | pest or weed control at 125 g/ha (blackgrass; Alopecurus myosuroides, post-emergence, 336 h, 125 g ai/ha, read-out: Blackgrass plant response rating) | plant injury at 125 g/ha (wheat; Triticum aestivum, post-emergence, 336 h, 125 g ai/ha, visual rating, scale 0 (no effect) to 100 (complete control), read-out: Wheat plant response rating) | pest or weed control at 125 g/ha (wild oat; Avena fatua, post-emergence, 336 h, 125 g ai/ha, visual rating, scale 0 (no effect) to 100 (complete control), read-out: Oat, Wild plant response rating) | pest or weed control at 1000 g/ha (barnyardgrass; Echinochloa crus-galli, 336 h, read-out: Barnyardgrass plant response rating)
